Measured values as given in patent US6184365A, “Anthracycline derivatives having 4-amino-2,4,6-trideoxy-2 fluoro-α-L-talopyranosyl group” (priority 1996, dated 2001).
In brackets after ≈: the same amount, converted by molar mass. Entries after “also recorded” stand apart in the source; their conditions may differ. Read-outs that look alike come from different tables or passages of the source.

How the values were obtained:
[1] = earlier derivatives; comparison with daunomycin or adriamycin; cited from earlier work
[2] = earlier derivatives; cited from earlier work
[3] = system: human chronic myelogenous leukemia (K562); test: Growth inhibition of human chronic myelogenous leukemia (K562); type: cell-based; conditions: for IC50: Homo sapiens
Method: (§1) Adriamycin was used as a comparative compound and was tested in the same manner as above.
(§2) The different kinds of human cancer cells tested were six kinds indicated below, including human chronic myelogenous leukemia (K562), human vaginal melanoma (HMV-1), human nasopharyngeal carcinoma (KB), human gastric adenocarcinoma (MKN-1), human lung non-small cell carcinoma (PC-14) and human bladder carcinoma (T24).

[4] = system: adriamycin-resistant P388 cells (P388/ADR); test: Growth inhibition of adriamycin-resistant P388 cells (P388/ADR); type: cell-based, mouse; conditions: for IC50: Mus musculus
Method: as §1

[5] = system: human nasopharyngeal carcinoma (KB); test: Growth inhibition of human nasopharyngeal carcinoma (KB); type: cell-based
Method: as §1, §2

[6] = system: human lung non-small cell carcinoma (PC-14); test: Growth inhibition of human lung non-small cell carcinoma (PC-14); type: cell-based; conditions: for IC50: Homo sapiens
Method: as §1, §2

[7] = system: human vaginal melanoma (HMV-1); test: Growth inhibition of human vaginal melanoma (HMV-1); type: cell-based
Method: as §1, §2

[8] = system: mouse leukemia P388 cells; test: Growth inhibition of mouse leukemia P388 cells; type: cell-based
Method: as §1

[9] = system: human bladder carcinoma (T24); test: Growth inhibition of human bladder carcinoma (T24); type: cell-based; conditions: for IC50: Homo sapiens
Method: as §1, §2

[10] = system: Leukemia L-1210 cells; test: Antitumor activity against leukemia in CDF1 mice inoculated with Leukemia L-1210 cells; type: in vivo, mouse; conditions: for Increase (%) in life-span (T/C, %): i.p., once a day for 9 days, as hydrochloride; for antitumor activity against mouse Leukemia L-1210 cell compared with adriamycin: low dosages
Method: Thus, to evaluate the antitumor effects of the novel compounds of this invention against experimental tumors in animals, CDF1 mice (four mice per group) were intraperitoneally inoculated with cells of Leukemia L-1210 at an amount of 1×10^5 cells/mouse. Since an elapse of 24 hours from the inoculation of the leukemia cells, a test compound of this invention was administered intraperitoneally to the mice under test once a day for consecutive 9 days, with the test compound being given as its hydrochloride in the form of a solution in a physiological saline. […] In the meanwhile, mice of the control group (the untreated group) were administered only with physiological saline after the inoculation of the L-1210 cells. During the observation period, the number of the surviving mice was counted for both the treated group and the control group, and the mean survival days of mice of both the treated group and the control group were calculated. Then, the percentages (%) of the increase in the life-span of the treated mice was estimated, as T/C (%), in terms of the mean survival day (C) of the untreated mice of the control group and the mean survival day (T) of the treated mice of the treated group. For comparison purposes, similar tests were effected using daunomycin (as hydrochloride) and adriamycin (as hydrochloride). The mean survival day of mice of the control group (the untreated group) was 8 to 9 days, and the mean survival day of mice of the comparative groups having received the administration of daunomycin or adriamycin usually varied dependently on the dosage of the compound tested.
Incidentally, in respect of the fractional numbers parenthesized below the numerical values of increase (%) in the life-span, the denominator of the fraction denotes the number of mice tested in one test group but the numerator of the fraction denotes the number of mice which survived for 60 days or longer.

[11] = cited from earlier work
[12] = system: human gastric adenocarcinoma (MKN-1); test: Growth inhibition of human gastric adenocarcinoma (MKN-1); type: cell-based; conditions: for IC50: Homo sapiens
Method: as §1, §2

[13] = system: various human cancer cells; test: in vitro tests against various human cancer cells; type: cell-based; conditions: for antitumor or anticancer activity compared with adriamycin: human cancer cells as well as mouse leukemia P388 and P388/ADR cells; for anticancer activities against various human cancer cells compared with adriamycin: in vitro
Method: as §1, §2

[14] = Solubility in water; type: physicochemical
[15] = system: mouse Leukemia L-1210 cell; conditions: in vivo, cited from earlier work
[16] = system: various human cancer cells; conditions: in vitro; cited from earlier work
[17] = PC-14, 72 hours, read-out: IC50
[18] = HMV-1, 72 hours, read-out: IC50
[19] = MKN-1, 72 hours, read-out: IC50

## COc1cccc2c1C(=O)c1c(O)c3c(c(O)c1C2=O)C[C@@](O)(C(=O)CO)C[C@@H]3O[C@@H]1O[C@@H](C)[C@@H](O)[C@@H](O)[C@H]1F [7-O-(2,6-Dideoxy-2-fluoro-α-L-talopyranosyl)adriamycinone]
[1]
  antitumor activity: remarkable antitumor activity
[2]
  solubility in water: barely soluble in water

## COc1cccc2c1C(=O)c1c(O)c3c(c(O)c1C2=O)C[C@@](O)(C(=O)CO)C[C@@H]3O[C@@H]1O[C@@H](C)[C@@H](O)[C@@H](N)[C@H]1F [7-O-(3-amino-2,3,6-trideoxy-2-fluoro-α-L-talopyranosyl)adriamycinone]
[1]
  antitumor activity: antitumor activity a little higher than that of the latter
[2]
  solubility in water: soluble in water

## COc1cccc2c1C(=O)c1c(O)c3c(c(O)c1C2=O)C[C@@](O)(C(=O)CO)C[C@@H]3O[C@H]1C[C@H](N)[C@H](O)[C@H](C)O1 [Adriamycin, reference compound]
[3]; K562, 72 h
  IC50: 0.39 µg/mL (≈ 0.718 µM)
[4]; 72 h
  IC50: 2.5 µg/mL (≈ 4.6 µM)
[5]; 72 h
  IC50: 0.05 µg/mL (≈ 0.092 µM)
[6]; PC-14, 72 h
  IC50: 0.62 µg/mL (≈ 1.14 µM)
[7]; 72 h
  IC50: 0.14 µg/mL (≈ 0.258 µM)
[8]; P388, 72 h
  IC50: 0.032 µg/mL (≈ 0.0589 µM)
[9]; 72 h
  IC50: 0.16 µg/mL (≈ 0.294 µM)
[10]; 0.15 mg/kg/day
  Increase (%) in life-span (T/C, %): 140%
[10]; 0.3 mg/kg/day
  Increase (%) in life-span (T/C, %): 132%
[10]; 0.6 mg/kg/day
  Increase (%) in life-span (T/C, %): 208%
[10]; 1.25 mg/kg/day
  Increase (%) in life-span (T/C, %): 330%
[10]; 2.5 mg/kg/day
  Increase (%) in life-span (T/C, %): 273%
[10]; 5 mg/kg/day
  Increase (%) in life-span (T/C, %): 177%
[10]; 2.5 to 5 mg/kg/day
  development of toxicity in words: accompanied by the development of toxicity
  percentages of increase in the life-span (T/C, %): about 330%
[11]; clinical treatment of cancer-bearing patients
  side-effects: serious side-effects such as leukocytopenia, alopecia, myocardiopathy and others
[12]; MKN-1, 72 h
  IC50: 0.25 µg/mL (≈ 0.46 µM)

## COc1cccc2c1C(=O)c1c(O)c3c(c(O)c1C2=O)C[C@@](O)(C(C)=O)C[C@@H]3O[C@@H]1O[C@@H](C)[C@@H](N)[C@@H](O)[C@H]1F [Compound (a), 7-O-(4-amino-2,4,6-trideoxy-2-fluoro-α-L-talopyranosyl)daunomycinone]
[3]; K562, 72 hours, read-out: IC50
  IC50: 0.087 µg/mL (≈ 0.159 µM)
[4]
  anticancer activity, folds higher than that of adriamycin: 29.1 folds
[4]; 72 hours, read-out: IC50
  IC50: 0.086 µg/mL (≈ 0.158 µM)
[5]; KB, 72 hours, read-out: IC50
  IC50: 0.028 µg/mL (≈ 0.0513 µM)
[6]; [17]
  IC50: 0.17 µg/mL (≈ 0.312 µM)
[7]; [18]
  IC50: 0.071 µg/mL (≈ 0.13 µM)
[8]; P388, 72 hours, read-out: IC50
  IC50: < 0.0098 µg/mL
[13]
  antitumor or anticancer activity compared with adriamycin: higher antitumor or anticancer activities than those of adriamycin
  anticancer activities against various human cancer cells compared with adriamycin: remarkably improved anticancer activities
[9]; T24, 72 hours, read-out: IC50
  IC50: 0.047 µg/mL (≈ 0.0862 µM)
[10]; 0.15 mg/kg/day
  Increase (%) in life-span (T/C, %): 127%
[10]; 0.3 mg/kg/day
  Increase (%) in life-span (T/C, %): 152%
[10]; 0.6 mg/kg/day
  Increase (%) in life-span (T/C, %): 182%
[10]; 1.25 mg/kg/day
  number of mice which survived for 60 days or longer / number tested: 2/4
  Increase (%) in life-span (T/C, %): > 463%
[10]; 2.5 mg/kg/day
  Increase (%) in life-span (T/C, %): 235%
[10]; 5 mg/kg/day
  Increase (%) in life-span (T/C, %): 175%
[10]; 0.6~1.25 mg/kg
  antitumor activity compared with daunomycin: antitumor activities higher than those of daunomycin
[10]
  antitumor activity against mouse Leukemia L-1210 cell compared with adriamycin: substantially equal to or higher than that of adriamycin
[14]
  solubility: 10 mg/mL (≈ 18300 µM)
[12]; [19]
  IC50: 0.12 µg/mL (≈ 0.22 µM)

## COc1cccc2c1C(=O)c1c(O)c3c(c(O)c1C2=O)C[C@@](O)(C(=O)CO)C[C@@H]3O[C@@H]1O[C@@H](C)[C@@H](N)[C@@H](O)[C@H]1F [Compound (b), 7-O-(4-amino-2,4,6-trideoxy-2-fluoro-α-L-talopyranosyl)adriamycinone]
[3]; K562, 72 hours, read-out: IC50
  IC50: 0.063 µg/mL (≈ 0.112 µM)
[3]; K562
  anticancer activity, folds higher than that of adriamycin: 6.2 folds
[4]
  anticancer activity, folds higher than that of adriamycin: 13.9 folds
[4]; 72 hours, read-out: IC50
  IC50: 0.18 µg/mL (≈ 0.321 µM)
[5]; KB, 72 hours, read-out: IC50
  IC50: 0.023 µg/mL (≈ 0.041 µM)
[6]; [17]
  IC50: 0.12 µg/mL (≈ 0.214 µM)
[6]; PC-14
  anticancer activity, folds higher than that of adriamycin: 5.2 folds
[7]; [18]
  IC50: 0.056 µg/mL (≈ 0.0997 µM)
[8]; P388, 72 hours, read-out: IC50
  IC50: < 0.0098 µg/mL
[13]
  antitumor or anticancer activity compared with adriamycin: higher antitumor or anticancer activities than those of adriamycin
  anticancer activities against various human cancer cells compared with adriamycin: remarkably improved anticancer activities
[9]; T24, 72 hours, read-out: IC50
  IC50: 0.026 µg/mL (≈ 0.0463 µM)
[9]; T24
  anticancer activity, folds higher than that of adriamycin: 6.2 folds
[10]; 0.15 mg/kg to 0.6 mg/kg
  antitumor activity (T/C, %) compared with daunomycin: remarkably enhanced anticancer or antitumor activities
[10]; 0.15 mg/kg/day
  Increase (%) in life-span (T/C, %): 155%
[10]; 0.3 mg/kg to 0.6 mg/kg
  development of toxicity in words: did not involve the development of toxicity; also recorded: the development of toxicities is not involved
[10]; 0.3 mg/kg/day
  number of mice which survived for 60 days or longer / number tested: 1/4
  Increase (%) in life-span (T/C, %): > 400%
[10]; 0.3 mg/kg~0.6 mg/kg, pooled
  number of the mice surviving for 60 days (fully cured): two in eight
[10]; 0.6 mg/kg/day
  number of mice which survived for 60 days or longer / number tested: 1/4
  Increase (%) in life-span (T/C, %): > 403%
[10]; 1.25 mg/kg/day
  number of mice which survived for 60 days or longer / number tested: 1/4
  Increase (%) in life-span (T/C, %): > 330%
[10]; 2.5 mg/kg/day
  Increase (%) in life-span (T/C, %): 139%
[10]; 5 mg/kg/day
  Increase (%) in life-span (T/C, %): 92%
[10]; 0.3~0.6 mg/kg, adriamycin at 0.3~0.6 mg/kg
  antitumor activity compared with adriamycin: markedly enhanced anticancer or antitumor activities
[10]
  antitumor activity against mouse Leukemia L-1210 cell compared with adriamycin: substantially equal to or higher than that of adriamycin
[14]
  solubility: 15 mg/mL (≈ 26700 µM)
[12]; [19]
  IC50: 0.062 µg/mL (≈ 0.11 µM)
[12]; MKN-1
  anticancer activity, folds higher than that of adriamycin: 4 folds

## COc1cccc2c1C(=O)c1c(O)c3c(c(O)c1C2=O)C[C@@](O)(C(C)=O)C[C@@H]3O[C@H]1C[C@H](N)[C@H](O)[C@H](C)O1 [Daunomycin, reference compound]
[10]; 0.15 mg/kg/day
  Increase (%) in life-span (T/C, %): 132%
[10]; 0.3 mg/kg/day
  Increase (%) in life-span (T/C, %): 112%
[10]; 0.6 mg/kg/day
  Increase (%) in life-span (T/C, %): 145%
[10]; 1.25 mg/kg/day
  Increase (%) in life-span (T/C, %): 158%
[10]; 2.5 mg/kg/day
  Increase (%) in life-span (T/C, %): 171%
[10]; 5 mg/kg/day
  Increase (%) in life-span (T/C, %): 138%
[10]; 2.5 to 5 mg/kg/day
  development of toxicity in words: accompanied by the development of toxicity
[11]; human, in vivo
  side-effects: serious side-effects such as leukocytopenia, alopecia, myocardiopathy and others

## COc1cccc2c1C(=O)c1c(O)c3c(c(O)c1C2=O)C[C@@](O)(C(=O)CO)C[C@@H]3O[C@@H]1O[C@@H](C)[C@H](N)[C@@H](O)[C@H]1F [compound of the formula (D-b), 7-O-(4-amino-2,4,6-trideoxy-2-fluoro-α-L-mannopyranosyl)adriamycinone]
[2]
  solubility in water: soluble in water
[15]; low dosages
  antitumor activity against mouse Leukemia L-1210 cell over adriamycin: remarkably improved antitumor activity
[15]
  antitumor activity against experimental tumors in animals: remarkably high antitumor activity
[16]
  anticancer activity against various human cancer cells compared with adriamycin: substantially as high as those of adriamycin
